Reference: ChEMBL document CHEMBL1127438, “Substituted (S)-phenylpiperidines and rigid congeners as preferential dopamine autoreceptor antagonists: synthesis and structure-activity relationships” (J Med Chem, 1994)

Legend:
[1] = species on record: Rattus norvegicus; test: Compound is tested for concomitant ability to antagonize the locomotor activity induced by Di-Pr-5,6-ADTN; format: functional
[2] = system: Rattus norvegicus; test: Compound is tested for its ability to displace (Di-Pr-5,6-ADTN) at […] of subcutaneous dose from rat striatal binding sites in vivo; format: functional
[3] = system: Rattus norvegicus; test: Evaluated for DOPA accumulation (DOPAacc) level in nonhabituated rats after subcuteneous dose (100 uM/kg) in rat striatum; format: functional
[4] = system: Rattus norvegicus; test: Evaluated biochemically in nonhabituated rats for (100 umol/kg) subcuteneous dose, Value expressed as locomotor activity (LMA); format: functional
[5] = system: Rattus norvegicus; test: Evaluated biochemically in reserpine-pretreated habituated rats for (100 umol/kg) subcuteneous dose in rat striatum (DOPAacc), Value expressed as counts/30 min; format: functional
[6] = molecular target: T1, D(2) dopamine receptor (Homo sapiens, UniProt P14416); test: biochemical
Description: In vitro binding affinity against cloned mammalian dopamine D2 autoreceptor, expressed in CHO-K1 cells, using [3H]U-86170 as radioligand

[7] = system: Rattus norvegicus; test: Evaluated biochemically in reserpine-pretreated habituated rats for (100 umol/kg) subcuteneous dose, Value expressed as locomotor activity (LMA); format: functional
[8] = system: Rattus norvegicus; test: Effect of (60 min after administration of 200 (uM/kg) subcuteneous dose on DA release in brain dialysis model of rat striatum; Values expressed as percent of saline controls; format: functional
[9] = species on record: Rattus norvegicus; test: Tested in vio for concomitant ability to antagonize the locomotor activity of rat induced by Di-Pr-5,6-ADTN, Value expressed as locomotor activity (LMA), % of control; format: functional; parameters: scale not given: the % may be the effect or the level left
[10] = molecular target: T1, D(2) dopamine receptor; test: biochemical; remark: listed apart in the source
Description: (§1) Affinity against recombinant dopamine receptor (DA) D2 expressed in CHO-K1 cells, using [3H]-spiperone as radioligand

[11] = system: Rattus norvegicus; test: Evaluated for DOPAC level in nonpretreated habituated rats after subcuteneous dose of 100 micro mol/kg in rat striatum; format: functional
[12] = molecular target: T2, D(3) dopamine receptor (Homo sapiens, UniProt P35462); test: Tested for in vitro binding affinity against cloned mammalian dopamine D3 receptor, expressed in CHO-K1 cells, using [3H]spiperone as radioligand; format: cell-based
[13] = molecular target: T3, D(2) dopamine receptor (Rattus norvegicus, UniProt P61169)
Description: Affinity against striatal dopamine D2 receptors using [3H]spiperone as radioligand in rats.

[14] = system: Rattus norvegicus; test: Evaluated biochemically in nonpretreated habituated rats for (100 uM/kg) subcuteneous dose, Value expressed as locomotor activity (LMA); format: functional
[15] = system: Rattus norvegicus; test: Tested in vivo for its ability to displace DA receptor agonist (Di-Pr-5,6-ADTN) from rat striatal binding sites at 0.25 uM/Kg sc. dose (after subtraction of cerebellum levels); format: functional
[16] = molecular target: Dopamine receptor; test: Tested for in vitro binding affinity against cloned mammalian dopamine autoreceptor (DA) receptors expressed in CHO-K1 cells using [3H]U-86170 as radioligand; format: cell-based
[17] = system: Rattus norvegicus; test: Compound is tested for its ability to displace Di-Pr-5,6-ADTN at […] subcutaneous dose from rat striatal binding sites in vivo; format: functional
[18] = system: Rattus norvegicus; test: Evaluated for biochemical levels of DOPAC in nonpretreated habituated rats for subcuteneous dose of 100 micro mol/kg in rat striatum; format: functional
[19] = molecular target: T3, D(2) dopamine receptor; test: Tested for affinity against striatal dopamine autoreceptor (DA) D2 receptors using [3H]spiperone as radioligand in rats.
[20] = molecular target: T2, D(3) dopamine receptor; test: Tested for in vitro binding affinity against cloned mammalian dopamine autoreceptor (DA) receptors expressed in CHO-K1 cells [3H]-spiperone as radioligand; format: cell-based
[21] = system: Rattus norvegicus; test: Evaluated for DOPA accumulation in nonhabituated rats at 100 umol/kg of subcuteneous dose in rat striatum; format: functional
[22] = system: Rattus norvegicus; test: Effect (60 min after administration of 200 (micro mol/kg) subcuteneous dose on DA release in brain dialysis model of rat striatum; format: functional
[23] = system: Rattus norvegicus; test: Compound is evaluated for DOPA accumulation in reserpine-pretreated habituated rats at 100 umol/kg of subcuteneous dose in rat striatum; format: functional
[24] = system: Rattus norvegicus; test: Compound is evaluated for DOPA accumulation in reserpine-pretreated habituated rats at 100 micro mol/kg of subcuteneous dose in rat striatum; format: functional
[25] = system: Rattus norvegicus; test: Effect (60 min after administration of 200 (micro mol/kg) subcuteneous dose on DA release in brain dialysis model of rat; format: functional
[26] = system: Rattus norvegicus; test: Evaluated for locomotor activity in nonpretreated habituated rats in 100 umol/kg of subcuteneous dose; format: functional; parameters: unit not given here
[27] = system: Rattus norvegicus; test: Compound is evaluated for DOPAC level in nonpretreated habituated rats after subcuteneous dose (100 micro mol/kg) in rat striatum; value expressed as percent of saline controls; format: functional
[28] = species on record: Rattus norvegicus; test: Compound was tested in vio for concomitant ability to antagonize the locomotor activity of rat induced by Di-Pr-5,6-ADTN, Value expressed as locomotor activity (LMA), % of control; format: functional; parameters: scale not given: the % may be the effect or the level left
[29] = system: Rattus norvegicus; test: Evaluated for locomotor activity in nonpretreated habituated rats at 100 umol/kg of subcuteneous dose; format: functional; parameters: unit not given here
[30] = system: Rattus norvegicus; test: Compound is evaluated for locomotor activity in nonhabituated rats at 100 umol/kg of subcuteneous dose; format: functional
[31] = system: Rattus norvegicus; test: Compound is evaluated for locomotor activity in reserpine-pretreated habituated rats at 100 umol/kg of subcuteneous dose; format: functional
[32] = system: Rattus norvegicus; test: Compound is evaluated biochemically in nonhabituated rats for (100 umol/kg) subcuteneous dose, Value expressed as locomotor activity (LMA); format: functional
[33] = system: Rattus norvegicus; test: Compound is evaluated for accumulation of DOPA in nonhabituated rats at 100 umol/kg of subcuteneous dose in rat striatum; format: functional
[34] = system: Rattus norvegicus; test: Effect 60 min after administration of 200 (umol/kg) subcuteneous dose on DA release in rat brain dialysis model; format: functional
[35] = molecular target: T1, D(2) dopamine receptor; details: cho-k1
Description: as §1

T2 sequence (P35462 whole entry): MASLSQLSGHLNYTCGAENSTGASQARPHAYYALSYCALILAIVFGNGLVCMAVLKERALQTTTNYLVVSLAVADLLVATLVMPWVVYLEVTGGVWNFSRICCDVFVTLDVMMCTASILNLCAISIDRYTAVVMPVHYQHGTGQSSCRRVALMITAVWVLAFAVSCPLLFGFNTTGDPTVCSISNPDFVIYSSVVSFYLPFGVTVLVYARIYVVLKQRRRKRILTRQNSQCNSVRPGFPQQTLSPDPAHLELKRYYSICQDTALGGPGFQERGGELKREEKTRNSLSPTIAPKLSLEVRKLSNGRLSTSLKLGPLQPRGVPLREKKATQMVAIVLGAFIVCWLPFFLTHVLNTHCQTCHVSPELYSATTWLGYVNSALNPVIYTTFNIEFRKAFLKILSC
T1 sequence (P14416 whole entry): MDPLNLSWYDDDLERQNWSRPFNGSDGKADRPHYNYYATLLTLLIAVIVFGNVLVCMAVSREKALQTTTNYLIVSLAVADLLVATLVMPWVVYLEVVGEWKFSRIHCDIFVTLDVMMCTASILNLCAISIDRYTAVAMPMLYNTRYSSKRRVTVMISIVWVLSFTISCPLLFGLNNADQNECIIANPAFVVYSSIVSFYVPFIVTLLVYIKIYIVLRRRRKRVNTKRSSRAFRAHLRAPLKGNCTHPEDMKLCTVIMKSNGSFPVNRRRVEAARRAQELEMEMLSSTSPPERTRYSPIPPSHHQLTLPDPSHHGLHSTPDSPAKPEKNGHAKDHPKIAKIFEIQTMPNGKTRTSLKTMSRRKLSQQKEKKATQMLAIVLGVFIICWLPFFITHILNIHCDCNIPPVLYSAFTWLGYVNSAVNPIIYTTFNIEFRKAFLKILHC
T3 sequence (P61169 whole entry): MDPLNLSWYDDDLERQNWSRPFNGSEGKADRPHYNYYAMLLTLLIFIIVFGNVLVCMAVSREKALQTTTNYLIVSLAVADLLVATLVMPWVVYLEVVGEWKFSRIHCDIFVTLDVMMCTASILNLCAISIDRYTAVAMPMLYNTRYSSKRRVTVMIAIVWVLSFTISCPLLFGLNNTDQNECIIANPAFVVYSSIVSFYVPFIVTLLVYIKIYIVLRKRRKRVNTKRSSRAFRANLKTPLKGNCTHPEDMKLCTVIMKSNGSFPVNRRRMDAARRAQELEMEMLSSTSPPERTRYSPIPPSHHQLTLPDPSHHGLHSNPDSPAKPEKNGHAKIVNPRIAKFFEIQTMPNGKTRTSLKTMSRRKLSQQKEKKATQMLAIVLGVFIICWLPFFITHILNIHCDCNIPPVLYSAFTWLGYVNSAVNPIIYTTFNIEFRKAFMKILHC

Row | SMILES | Ki [6] | Control [7] | Activity [8] | Ki [10] | Ki [12] | Ki [13] | Control [15] | Ki [16] | Activity [18] | Ki [19] | Ki [20] | Activity [21] | other results
1 | CCCN(CCC)C1CCc2c(ccc(O)c2O)C1 (stereo not given) | – | – | – | – | – | – | – | – | – | – | – | – | LMA [1]: 100%; Activity [2]: 0%
2 | CCCN1CCC[C@@H](c2cccc(S(C)(=O)=O)c2)C1 | 447 nM | 10% | 293% | > 217 nM | 1300 nM | 6270 nM | 45% | – | – | – | – | – | Activity [3]: 319%; Locomotor activity (% of control) [4]: 135%; Activity [5]: 95%; Control [9]: 101%; Activity [11]: 250%; Control [14]: 368%
3 | CCCN1CCC[C@@H](c2ccccc2)C1 | – | – | – | > 217 nM | – | – | – | 222 nM | 188% | 1490 nM | 777 nM | 140% | Activity [17]: 20%; LMA [1]: 90%; Activity [22]: 473%; Activity [23]: 65%
4 | O=S(=O)(Oc1cccc([C@@H]2CCCN(CCc3ccccc3)C2)c1)C(F)(F)F | – | – | – | 73 nM | – | – | – | 11 nM | – | 40 nM | 19 nM | 111% | Activity [24]: 66%; Activity [25]: 89%; LMA [26]: 20
5 | CCCN1CCC[C@@H](c2ccc(OS(=O)(=O)C(F)(F)F)cc2)C1 | – | – | – | > 217 nM | – | – | – | 1736 nM | 85% | 11800 nM | 1140 nM | 495% | –
6 | CCN1CCC[C@@H](c2cccc(OS(=O)(=O)C(F)(F)F)c2)C1 | – | – | – | > 217 nM | – | – | – | – | 300% | 1180 nM | – | 286% | Activity [25]: 120%
7 | CCC(C)N1CCC[C@@H](c2cccc(C#N)c2)C1 (stereo not given in full) | 187 nM | – | 256% | 98 nM | 105 nM | 1050 nM | 59% | – | – | – | – | – | Control [9]: 56%; Activity [11]: 267%; Control [14]: 346%
8 | CCCN1CCC[C@@H](c2cccc(C(C)=O)c2)C1 | > 1850 nM | 7% | 179% | > 217 nM | 2150 nM | 6540 nM | 44% | – | – | – | – | – | Locomotor activity (% of control) [4]: 139%; Activity [5]: 73%; Control [9]: 81%; Control [27]: 183%; Activity [11]: 243%; Control [14]: 824%
9 | CCCN1CCC[C@@H](c2cccc(C#N)c2)C1 | 119 nM | 12% | 252% | 265 nM | 249 nM | 1140 nM | 66% | – | – | – | – | – | Control [28]: 31%
10 | CCCN1CCC[C@@H](c2cccc(Br)c2)C1 | – | – | – | 170 nM | – | – | – | 106 nM | 145% | 533 nM | 171 nM | 199% | LMA [29]: 470; LMA [30]: 140; Activity [22]: 363%; LMA [31]: 15; Activity [23]: 101%
11 | CCCN1CCC[C@@H](c2cccc(CO)c2)C1 | 240 nM | 3% | 175% | > 217 nM | 1460 nM | 410 nM | – | – | – | – | – | – | Activity [3]: 118%; Activity [5]: 50%; Control [32]: 123%; Activity [11]: 138%; Control [14]: 187%
12 | C=CCN1CCC[C@@H](c2cccc(C#N)c2)C1 | 254 nM | 3% | 522% | > 217 nM | 658 nM | 1890 nM | 59% | – | – | – | – | – | Activity [3]: 257%; Locomotor activity (% of control) [4]: 143%; Activity [5]: 85%; Control [9]: 46%
13 | C#Cc1cccc([C@@H]2CCCN(CCC)C2)c1 | – | – | – | > 217 nM | – | – | – | 334 nM | 138% | 709 nM | 339 nM | – | Activity [33]: 136%; LMA [29]: 671; Activity [34]: 265%; LMA [30]: 237
14 | CCCN1CCC[C@@H](c2cccc(OS(C)(=O)=O)c2)C1 | 192 nM | 18% | 234% | > 217 nM | 978 nM | 4170 nM | 55% | – | – | – | – | – | Activity [3]: 249%; Locomotor activity (% of control) [4]: 154%; Activity [5]: 74%; Control [28]: 46%; Control [14]: 576%
15 | CCCN1CCC[C@@H](c2ccccc2OS(=O)(=O)C(F)(F)F)C1 | – | – | – | > 217 nM | – | – | – | 315 nM | 83% | – | 3110 nM | 102% | –
16 | C=CCN1CC[C@@H]2c3cccc(OS(=O)(=O)C(F)(F)F)c3CC[C@@H]21 (stereo in doubt; 49) | – | – | – | > 217 nM | – | – | – | 353 nM | 108% | > 172 nM | 173 nM | – | LMA [26]: 116
17 | C=CCN1CC[C@@H]2c3cccc(OS(=O)(=O)C(F)(F)F)c3CC[C@@H]21 (stereo in doubt; 50) | – | – | – | – | – | – | – | > 1900 nM | 98% | > 172 nM | > 500 nM | – | Ki [35]: > 217 nM; LMA [26]: 148
